Reference: ChEMBL document CHEMBL4842350, “Discovery of a Novel Bromodomain and Extra Terminal Domain (BET) Protein Inhibitor, I-BET282E, Suitable for Clinical Progression” (J Med Chem, 2021)
≈ marks a conversion by molar mass, not a printed value.

Experiments:
[1] = rat, hepatocytes, 2 h, 0.5 µM
[2] = dog, hepatocytes, 2 h, 0.5 µM
[3] = human, hepatocytes, 2 h, 0.5 µM
physchem = conditions: FaSSIF, pH 6.5
Description: Solubility of the compound in FaSSIF at pH 6.5 measured after 30 mins by HPLC analysis

[4] = target: T1, Bromodomain-containing protein 4 (Homo sapiens, UniProt O60885); experiment: Inhibition of BRD4 in human PBMC assessed as reduction in LPS-induced IL-6 secretion incubated for 18 to 24 hrs by MSD assay
[5] = target: Bromodomain-containing protein 4 (Homo sapiens, UniProt O60885, Y390A); experiment: Displacement of Alexa Fluor 647 labelled ligand from recombinant human N-terminal 6His-tagged BRD4-BD1 Y390A mutant (1 to 477 residue) expressed in Escherichia coli incubated for 30 mins by TR-FRET assay
Cytochrome P450 3A4 = Cytochrome P450 3A4 (Homo sapiens, UniProt P08684); experiment: Inhibition of recombinant human CYP3A4 expressed in Escherichia coli using VG as probe substrate incubated for 15 to 60 mins by fluorometric assay; type: ADME
Chain of Cytochrome P450 3A4 (P08684 whole entry): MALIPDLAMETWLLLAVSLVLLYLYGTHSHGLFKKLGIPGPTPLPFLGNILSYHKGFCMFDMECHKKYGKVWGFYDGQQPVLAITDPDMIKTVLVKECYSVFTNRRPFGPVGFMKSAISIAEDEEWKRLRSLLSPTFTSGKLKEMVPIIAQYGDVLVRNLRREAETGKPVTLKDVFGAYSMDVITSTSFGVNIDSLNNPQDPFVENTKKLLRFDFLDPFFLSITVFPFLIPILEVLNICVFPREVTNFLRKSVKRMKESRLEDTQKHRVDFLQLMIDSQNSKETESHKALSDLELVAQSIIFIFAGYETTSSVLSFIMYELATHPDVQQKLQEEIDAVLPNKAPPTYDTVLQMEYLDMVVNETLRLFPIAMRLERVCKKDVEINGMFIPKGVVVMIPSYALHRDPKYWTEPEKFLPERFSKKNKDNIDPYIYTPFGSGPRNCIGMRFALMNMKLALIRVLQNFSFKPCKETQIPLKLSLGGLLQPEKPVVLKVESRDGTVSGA

[6] = target: T1, Bromodomain-containing protein 4; experiment: Inhibition of BRD4 in human whole blood assessed as reduction in LPS-induced IL-6 secretion preincubated for 30 mins followed by LPS stimulation and measured after 24 hrs by MSD assay; type: tissue-based
Cytochrome P450 2C9 = Cytochrome P450 2C9 (Homo sapiens, UniProt P11712)
Chain of Cytochrome P450 2C9 (P11712 whole entry): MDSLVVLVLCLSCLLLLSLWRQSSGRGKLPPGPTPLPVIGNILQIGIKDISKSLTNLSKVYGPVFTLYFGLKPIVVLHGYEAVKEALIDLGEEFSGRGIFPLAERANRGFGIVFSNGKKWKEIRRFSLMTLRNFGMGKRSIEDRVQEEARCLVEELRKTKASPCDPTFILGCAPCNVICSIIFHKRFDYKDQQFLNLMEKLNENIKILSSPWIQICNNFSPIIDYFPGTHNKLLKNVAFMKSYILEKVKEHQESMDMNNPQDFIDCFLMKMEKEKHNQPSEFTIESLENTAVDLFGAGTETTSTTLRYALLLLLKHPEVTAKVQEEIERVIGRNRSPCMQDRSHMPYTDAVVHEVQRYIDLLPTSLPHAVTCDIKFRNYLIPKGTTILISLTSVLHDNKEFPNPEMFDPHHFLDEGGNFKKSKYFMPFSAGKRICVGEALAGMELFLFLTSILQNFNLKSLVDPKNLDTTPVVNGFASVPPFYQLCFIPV
Description: Inhibition of recombinant human CYP2C9 expressed in Escherichia coli using FCA as substrate incubated for 15 to 60 mins by fluorometric assay

IC50 [4] [nM] | IC50 [5] [nM] | Compound | further results
– | – | COc1cc2c(cc1-c1c(C)noc1C)ncc1[nH]c(=O)n([C@H](C)c3ccccn3)c12 | CLint [1]: < 0.86 mL/min/g liver; CLint [2]: 9.8 mL/min/g liver; CLint [3]: < 0.86 mL/min/g liver; solubility at 0.5 h (physchem): 66 µg/mL (≈ 159 µM)
398 | 631 | COc1cc2c(cc1-c1c(C)noc1C)ncc1[nH]c(=O)n(CC3CC3)c12 | –
158 | 39.8 | COc1cc2c(cc1-c1c(C)noc1C)ncc1nc(C(C)C)n(Cc3ccccn3)c12 | –
25.1 | 12.6 | COCCNc1nc2cnc3cc(-c4c(C)noc4C)c(OC)cc3c2n1[C@H](C)c1ccccn1 | IC50 (Cytochrome P450 3A4): 7900 nM; IC50 [6]: 158 nM; IC50 (Cytochrome P450 2C9): 7900 nM
1580 | 631 | COCC(C)n1c(=O)[nH]c2cnc3cc(-c4c(C)noc4C)c(OC)cc3c21 (racemic) | –
100 | 31.6 | COCCNc1nc2cnc3cc(-c4c(C)noc4C)c(OC)cc3c2n1Cc1ccccn1 | IC50 (Cytochrome P450 3A4): 15800 nM; IC50 [6]: 398 nM; IC50 (Cytochrome P450 2C9): 31600 nM
126 | 25.1 | CCCc1nc2cnc3cc(-c4c(C)noc4C)c(OC)cc3c2n1Cc1ccccn1 | –
158 | 31.6 | CCc1nc2cnc3cc(-c4c(C)noc4C)c(OC)cc3c2n1Cc1ccccn1 | –
1260 | 251 | COc1cc2c(cc1-c1c(C)noc1C)ncc1[nH]c(=O)n(CC3CCCOC3)c12 (racemic) | –
15800 | 2000 | COc1cc2c(cc1-c1c(C)noc1C)ncc1[nH]c(=O)n(C3CCNCC3)c12 | –
39.8 | 31.6 | COc1cc2c(cc1-c1c(C)noc1C)ncc1nc(N(C)C)n(CC3CCOCC3)c12 | IC50 (Cytochrome P450 3A4): 10000 nM; IC50 [6]: 251 nM; IC50 (Cytochrome P450 2C9): 1300 nM
398 | 79.4 | COCc1nc2cnc3cc(-c4c(C)noc4C)c(OC)cc3c2n1CC1CCOCC1 | –
251 | 63.1 | COc1cc2c(cc1-c1c(C)noc1C)ncc1nc(C3CCOCC3)n(Cc3ccccn3)c12 | –
1000 | 794 | COc1cc2c(cc1-c1c(C)noc1C)ncc1[nH]c(=O)n(CC(C)C)c12 | –
200 | 100 | COc1cc2c(cc1-c1c(C)noc1C)ncc1[nH]c(=O)n(CC3CCOCC3)c12 | –
126 | 100 | COCC(C)n1c(C2CCOCC2)nc2cnc3cc(-c4c(C)noc4C)c(OC)cc3c21 (racemic) | IC50 [6]: 398 nM
39.8 | 39.8 | COc1cc2c(cc1-c1c(C)noc1C)ncc1nc(C)n(Cc3ccccn3)c12 | –

IC50 [4] [nM] | IC50 [5] [nM] | Compound | further results
126 | 126 | CCCC(C)n1c(=O)[nH]c2cnc3cc(-c4c(C)noc4C)c(OC)cc3c21 (stereo not drawn) | –
200 | 158 | COc1cc2c(cc1-c1c(C)noc1C)ncc1[nH]c(=O)n(C(C)C3CCOCC3)c12 (racemic) | –
3160 | 1260 | COc1cc2c(cc1-c1c(C)noc1C)ncc1[nH]c(=O)n(CC3CCN(C)CC3)c12 | –
501 | 158 | COc1cc2c(cc1-c1c(C)noc1C)ncc1[nH]c(=O)n(Cc3ccccn3)c12 | –
100 | 31.6 | COc1cc2c(cc1-c1c(C)noc1C)ncc1nc(C3CCOCC3)n(C(C)C3CCOCC3)c12 (stereo not drawn) | IC50 [6]: 200 nM
3160 | 1260 | COc1cc2c(cc1-c1c(C)noc1C)ncc1[nH]c(=O)n(C(C)C)c12 | –
316 | 126 | COc1cc2c(cc1-c1c(C)noc1C)ncc1nc(C3CCOCC3)n(CC3CC3)c12 | IC50 [6]: 2000 nM
– | – | CCNC(=O)C[C@@H]1N=C(c2ccc(Cl)cc2)c2cc(OC)ccc2-n2c(C)nnc21 [MOLIBRESIB] | CLint [1]: < 0.86 mL/min/g liver; CLint [2]: < 1.7 mL/min/g liver; CLint [3]: < 0.86 mL/min/g liver
631 | 200 | COCc1nc2cnc3cc(-c4c(C)noc4C)c(OC)cc3c2n1C(C)COC (racemic) | –
3980 | 631 | COc1cc2c(cc1-c1c(C)noc1C)ncc1[nH]c(=O)n(CC3CCOC3)c12 (racemic) | –
25.1 | 39.8 | COc1cc2c(cc1-c1c(C)noc1C)ncc1nc(N3CCOCC3)n(CC3CCOCC3)c12 | IC50 [6]: 251 nM
158 | 39.8 | COc1cc2c(cc1-c1c(C)noc1C)ncc1nc(N)n(Cc3ccccn3)c12 | –
501 | 158 | COC[C@H](C)n1c(C2CCOCC2)nc2cnc3cc(-c4c(C)noc4C)c(OC)cc3c21 | IC50 [6]: 316 nM
398 | 63.1 | COCc1nc2cnc3cc(-c4c(C)noc4C)c(OC)cc3c2n1Cc1ccccn1 | –
1580 | 1580 | COc1cc2c(cc1-c1c(C)noc1C)ncc1[nH]c(=O)n(C3CCOCC3)c12 | –
1580 | 794 | COc1cc2c(cc1-c1c(C)noc1C)ncc1[nH]c(=O)n(CCN(C)C)c12 | –
